The source made the active and inactive calls. The rule behind the calls is not given here.
Tested on: Vero E6 cytotoxicity, luminescence viability
Test: PubChem AID 435015
Settings: at 20 µM; stronger effect = higher value

## CC(C)(C)NC(=O)C(c1cccnc1)N(C(=O)c1ccco1)c1ccc(C(C)(C)C)cc1 (stereo unspecified)
  inhibition: 23% (inactive)

Source: PubChem BioAssay AID435015 (The Scripps Research Institute Molecular Screening Center, 2010)
